# Legend:
# [1] = molecular target: T1, 5-hydroxytryptamine receptor 1A (Rattus norvegicus, UniProt P19327); assay: In vitro affinity towards 5-hydroxytryptamine 1A receptor using [3H]8-OH-DPAT as radioligand in hippocampus; type: tissue-based
# T1 sequence (P19327 whole entry): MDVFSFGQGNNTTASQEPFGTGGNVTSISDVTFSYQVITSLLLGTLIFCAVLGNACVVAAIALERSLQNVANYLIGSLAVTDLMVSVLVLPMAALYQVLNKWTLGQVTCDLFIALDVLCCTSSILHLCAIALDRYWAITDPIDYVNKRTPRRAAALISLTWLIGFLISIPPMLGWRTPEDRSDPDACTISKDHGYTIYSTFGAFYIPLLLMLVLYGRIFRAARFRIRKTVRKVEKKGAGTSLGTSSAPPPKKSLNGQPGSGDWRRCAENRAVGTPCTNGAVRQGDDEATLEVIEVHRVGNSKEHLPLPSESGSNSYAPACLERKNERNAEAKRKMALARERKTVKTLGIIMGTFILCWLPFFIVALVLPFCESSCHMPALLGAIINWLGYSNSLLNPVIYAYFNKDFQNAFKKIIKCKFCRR
# [2] = molecular target: T2, Adrenergic receptor alpha-1 (Rattus norvegicus, UniProt P15823+P23944+P43140); assay: Its affinity towards alpha-1 receptor using [3H]WB-4101 as radioligand in whole brain minus cerebellum; type: tissue-based
# T2 sequence (P15823 whole entry): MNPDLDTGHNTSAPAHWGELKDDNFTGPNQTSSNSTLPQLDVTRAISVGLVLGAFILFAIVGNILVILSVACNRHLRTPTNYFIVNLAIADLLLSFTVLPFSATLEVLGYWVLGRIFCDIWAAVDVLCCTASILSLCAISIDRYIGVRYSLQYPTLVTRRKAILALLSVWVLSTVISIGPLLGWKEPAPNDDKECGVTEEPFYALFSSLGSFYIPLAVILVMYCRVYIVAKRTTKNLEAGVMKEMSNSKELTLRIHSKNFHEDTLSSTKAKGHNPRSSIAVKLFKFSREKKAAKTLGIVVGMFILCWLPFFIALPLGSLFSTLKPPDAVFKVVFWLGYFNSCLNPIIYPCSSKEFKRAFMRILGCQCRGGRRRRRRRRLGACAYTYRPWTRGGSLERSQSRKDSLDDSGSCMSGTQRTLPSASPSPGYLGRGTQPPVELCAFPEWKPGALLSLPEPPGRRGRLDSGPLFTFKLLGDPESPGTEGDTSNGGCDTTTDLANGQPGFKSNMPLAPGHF
# T2 sequence (P23944 whole entry): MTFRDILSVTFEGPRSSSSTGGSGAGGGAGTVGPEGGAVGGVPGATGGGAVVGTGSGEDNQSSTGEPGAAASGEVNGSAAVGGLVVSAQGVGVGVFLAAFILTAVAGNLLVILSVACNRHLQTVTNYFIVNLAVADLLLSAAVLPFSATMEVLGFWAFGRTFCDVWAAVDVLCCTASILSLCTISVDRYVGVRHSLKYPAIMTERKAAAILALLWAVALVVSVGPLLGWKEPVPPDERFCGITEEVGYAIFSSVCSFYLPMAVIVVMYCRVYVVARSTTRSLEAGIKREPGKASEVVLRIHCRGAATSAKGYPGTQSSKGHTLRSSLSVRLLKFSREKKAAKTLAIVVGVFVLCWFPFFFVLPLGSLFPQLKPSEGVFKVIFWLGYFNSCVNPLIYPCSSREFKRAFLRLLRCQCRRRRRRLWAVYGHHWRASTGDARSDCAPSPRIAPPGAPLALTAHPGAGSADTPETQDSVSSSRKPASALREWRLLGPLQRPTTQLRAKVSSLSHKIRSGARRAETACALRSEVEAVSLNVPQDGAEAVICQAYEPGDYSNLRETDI
# T2 sequence (P43140 whole entry): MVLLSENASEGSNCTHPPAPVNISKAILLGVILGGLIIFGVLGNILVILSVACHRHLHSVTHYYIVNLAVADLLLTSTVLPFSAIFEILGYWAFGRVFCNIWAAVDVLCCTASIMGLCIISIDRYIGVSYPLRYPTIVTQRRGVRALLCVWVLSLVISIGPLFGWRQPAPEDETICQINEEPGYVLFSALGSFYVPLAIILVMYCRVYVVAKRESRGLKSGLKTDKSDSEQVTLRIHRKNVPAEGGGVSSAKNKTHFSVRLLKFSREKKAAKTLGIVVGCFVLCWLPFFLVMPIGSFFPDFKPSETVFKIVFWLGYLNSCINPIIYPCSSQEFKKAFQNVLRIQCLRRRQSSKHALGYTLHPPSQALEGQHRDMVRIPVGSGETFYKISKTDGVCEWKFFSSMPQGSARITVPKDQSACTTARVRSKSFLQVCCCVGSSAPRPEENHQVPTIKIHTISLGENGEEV
# Rattus norvegicus [3] = assay: Compound was evaluated in vivo for its antipsychotic activity for inhibition of apomorphine-induced stereotypy in rat after intraperitoneal administration at a dose of 40 mg/kg; type: functional; conditions: ip
# [4] = molecular target: 5-hydroxytryptamine receptor 2A (Rattus norvegicus, UniProt P14842); assay: In vitro affinity towards 5-hydroxytryptamine 2A receptor using [3H]spiroperidol as radioligand in cortex
# Chain of 5-hydroxytryptamine receptor 2A (P14842 whole entry): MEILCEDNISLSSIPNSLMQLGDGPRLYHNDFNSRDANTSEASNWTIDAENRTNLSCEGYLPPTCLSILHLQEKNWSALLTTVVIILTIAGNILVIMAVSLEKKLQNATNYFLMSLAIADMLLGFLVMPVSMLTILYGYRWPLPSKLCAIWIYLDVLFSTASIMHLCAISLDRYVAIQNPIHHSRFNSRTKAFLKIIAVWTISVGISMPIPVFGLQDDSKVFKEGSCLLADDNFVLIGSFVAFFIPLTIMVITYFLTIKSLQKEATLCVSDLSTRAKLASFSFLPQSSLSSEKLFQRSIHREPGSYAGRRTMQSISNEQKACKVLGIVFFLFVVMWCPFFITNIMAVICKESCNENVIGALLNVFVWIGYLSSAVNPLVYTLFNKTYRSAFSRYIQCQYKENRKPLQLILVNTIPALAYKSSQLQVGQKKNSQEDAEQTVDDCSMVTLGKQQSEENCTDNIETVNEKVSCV
# Mus musculus [5] = assay: In vivo effective dose for inhibition of apomorphine-induced climbing in mice after intraperitoneal administration at a dose 20 mg/kg; type: functional; conditions: ip
# Rattus norvegicus [6] = assay: Compound was evaluated in vivo for its antipsychotic activity for inhibition of apomorphine-induced stereotypy in rat; type: functional
# Rattus norvegicus [7] = assay: Compound was evaluated in vivo for its antipsychotic activity for inhibition of apomorphine-induced stereotypy in rat after intraperitoneal administration of a dose of 40 mg/kg; type: functional; conditions: ip
# Rattus norvegicus [8] = assay: Compound was evaluated in vivo for its antipsychotic activity for inhibition of apomorphine-induced stereotypy in rat after intraperitoneal administration of a dose of 10 mg/kg; type: functional; conditions: ip
# Rattus norvegicus [9] = assay: Compound was evaluated in vivo for its antipsychotic activity for inhibition of apomorphine-induced stereotypy in rat after intraperitoneal administration of a dose of 40 mg/kg value represented as percent inhibition; type: functional; conditions: ip
# Rattus norvegicus [10] = assay: Compound evaluated in vivo for its antipsychotic activity for inhibition of apomorphine-induced stereotypy in rat after intraperitoneal administration of a dose of 13 mg/kg; type: functional; conditions: ip
# Mus musculus [11] = assay: In vivo for its effective dose for inhibition of apomorphine-induced climbing in mice after intraperitoneal administration at a dose 20 mg/kg; type: functional; conditions: ip
# Rattus norvegicus [12] = assay: Compound was evaluated in vivo for its antipsychotic activity for inhibition of apomorphine-induced stereotypy in rat after intraperitoneal administration of a dose of 13 mg/kg; type: functional; conditions: ip
IC50 [1],IC50 [2],IC50 [4],SMILES,ED50 (Mus musculus [5]),also measured
0.018 µM,0.005 µM,0.201 µM,O=C(NCCCCN1CCN(c2nsc3ccccc23)CC1)c1nsc2ccccc12,–,inhibition in vivo at 40 mg/kg (Rattus norvegicus [3]): 17%
3.45 µM,0.239 µM,0.215 µM,O=C(NCCN1CCC(c2noc3cc(Cl)ccc23)CC1)c1nsc2ccccc12,> 20 mg/kg,–
1.88 µM,2.57 µM,–,O=C(NCCN1CCN(Cc2ccccc2)CC1)c1nsc2ccccc12,> 20 mg/kg,–
0.92 µM,0.0157 µM,0.017 µM,O=C(NCCN1CCC(C(=O)c2ccc(F)cc2)CC1)c1nsc2ccccc12,3.64 mg/kg,ED50 (Rattus norvegicus [6]): 25.7 mg/kg
0.004 µM,0.0033 µM,–,COc1ccccc1N1CCN(CCCCN(C)C(=O)c2nsc3ccccc23)CC1,9.61 mg/kg,inhibition in vivo at 40 mg/kg (Rattus norvegicus [7]): 100%
0.16 µM,0.174 µM,0.013 µM,CN(CCCCN1CCC(c2noc3cc(F)ccc23)CC1)C(=O)c1nsc2ccccc12,–,inhibition in vivo at 10 mg/kg (Rattus norvegicus [8]): 67%
0.0023 µM,0.0064 µM,0.724 µM,COc1ccccc1N1CCN(CCCCNC(=O)c2nsc3ccccc23)CC1,7.24 mg/kg,inhibition in vivo at 40 mg/kg (Rattus norvegicus [9]): 83%
0.0039 µM,0.0041 µM,0.55 µM,COc1ccccc1N1CCN(CCNC(=O)c2nsc3ccccc23)CC1,–,ED50 (Rattus norvegicus [6]): 51.8 mg/kg
0.0516 µM,0.0815 µM,0.726 µM,O=C(NCCN1CCN(c2cccc(Cl)c2)CC1)c1nsc2ccccc12,> 20 mg/kg,–
–,0.0398 µM,0.641 µM,O=C(NCCN1CCC(n2c(O)nc3ccccc32)CC1)c1nsc2ccccc12,> 20 mg/kg,–
0.098 µM,0.019 µM,0.475 µM,O=C(NCCN1CCN(c2nsc3ccccc23)CC1)c1nsc2ccccc12,> 20 mg/kg,–
0.339 µM,0.0032 µM,0.0302 µM,CN(CCCCN1CCC(C(=O)c2ccc(F)cc2)CC1)C(=O)c1nsc2ccccc12,8.2 mg/kg,inhibition in vivo at 40 mg/kg (Rattus norvegicus [7]): 60%
1.04 µM,> 10 µM,0.309 µM,O=C(NCCN1CCN(c2csc3cc(F)ccc23)CC1)c1noc2ccccc12,–,inhibition in vivo at 40 mg/kg (Rattus norvegicus [7]): 17%
6.65 µM,0.043 µM,0.123 µM,CN(CCCN1CCC(C(=O)c2ccc(F)cc2)CC1)C(=O)c1noc2ccccc12,> 20 mg/kg,–
0.82 µM,0.0094 µM,0.0328 µM,CN(CCN1CCC(c2noc3cc(F)ccc23)CC1)C(=O)c1nsc2ccccc12,1.7 mg/kg,inhibition in vivo at 13 mg/kg (Rattus norvegicus [10]): 50%
–,0.0055 µM,0.0297 µM,CC(C)N(CCN1CCC(c2noc3cc(F)ccc23)CC1)C(=O)c1noc2ccccc12,1.3 mg/kg,–
0.021 µM,0.0021 µM,0.391 µM,COc1ccccc1N1CCN(CCNC(=O)c2noc3ccccc23)CC1,> 20 mg/kg,–
0.0847 µM,0.0183 µM,3.11 µM,COc1ccccc1N1CCN(CCCNC(=O)c2nsc3ccccc23)CC1,13 mg/kg,inhibition in vivo at 40 mg/kg (Rattus norvegicus [7]): 17%
4.67 µM,0.00611 µM,0.068 µM,CN(CCCN1CCC(C(=O)c2ccc(F)cc2)CC1)C(=O)c1nsc2ccccc12,7.7 mg/kg,–
0.0186 µM,0.0058 µM,0.013 µM,CN(CCCCN1CCN(c2nsc3ccccc23)CC1)C(=O)c1nsc2ccccc12,–,ED50 (Mus musculus [11]): 2.49 mg/kg; ED50 (Rattus norvegicus [6]): 39.2 mg/kg
0.149 µM,0.0107 µM,1.65 µM,COc1ccccc1N1CCN(CCCN(C)C(=O)c2nsc3ccccc23)CC1,> 20 mg/kg,–
0.44 µM,0.104 µM,0.0176 µM,CN(CCN1CCC(c2noc3cc(F)ccc23)CC1)C(=O)c1noc2ccccc12,1.3 mg/kg,inhibition in vivo at 13 mg/kg (Rattus norvegicus [12]): 33%
0.128 µM,0.0032 µM,0.188 µM,CN(CCCCN1CCN(c2csc3cc(F)ccc23)CC1)C(=O)c1noc2ccccc12,–,ED50 (Rattus norvegicus [6]): 52 mg/kg
0.366 µM,0.0063 µM,0.232 µM,CN(CCCCN1CCN(c2csc3cc(F)ccc23)CC1)C(=O)c1nsc2ccccc12,–,ED50 (Rattus norvegicus [6]): 33 mg/kg
3.72 µM,0.0938 µM,0.115 µM,O=C(NCCCN1CCC(c2noc3cc(Cl)ccc23)CC1)c1nsc2ccccc12,> 20 mg/kg,–
2.5 µM,0.0753 µM,0.051 µM,CN(CCN1CCC(C(=O)c2ccc(F)cc2)CC1)C(=O)c1nsc2ccccc12,8 mg/kg,–
1.79 µM,0.1082 µM,0.027 µM,CN(CCN1CCC(C(=O)c2ccc(F)cc2)CC1)C(=O)c1noc2ccccc12,13.4 mg/kg,–
2.3 µM,0.124 µM,0.29 µM,CC(C)N(CCCN1CCC(C(=O)c2ccc(F)cc2)CC1)C(=O)c1noc2ccccc12,20.2 mg/kg,–
–,–,–,CN1CCN(C2=Nc3cc(Cl)ccc3Nc3ccccc32)CC1 [CLOZAPINE],–,inhibition in vivo at 40 mg/kg (Rattus norvegicus [7]): 33%
–,–,–,Cc1nc2n(c(=O)c1CCN1CCC(c3noc4cc(F)ccc34)CC1)CCCC2 [RISPERIDONE],0.062 mg/kg,ED50 (Rattus norvegicus [6]): 3.2 mg/kg

SMILES,IC50 [1],IC50 [2],IC50 [4],ED50 (Mus musculus [5]),also measured
CN1CCN(CCNC(=O)c2nsc3ccccc23)CC1,> 10 µM,> 10 µM,> 10 µM,> 20 mg/kg,–

# — ChEMBL document CHEMBL1127849, “Benzisoxazole- and benzisothiazole-3-carboxamides as potential atypical antipsychotic agents” (J Med Chem, 1994)
